Reference: US20200397700A1, “GRANULAR COMPOSITION, PRODUCTION METHOD FOR GRANULAR COMPOSITION, AND DISSOLUTION PROPERTY IMPROVEMENT METHOD FOR GRANULAR COMPOSITION” (NIPPON SHINYAKU CO., LTD., priority 2018, published 2020)
Counter-ions that a name gives are not always drawn.

Experiment: Dissolution test, Japanese Pharmacopoeia 17th Edition, paddle method, water
Assay type: physicochemical
Details: for dissolution rate of the mixture with an excipient after compression molding versus the mixture not compression molded: drug mixed with an excipient, compression molded in the same manner as in this embodiment
Procedure: With respect to the granular compositions of Examples 1 to 8, and Comparative Examples 1 to 8 prepared as described above, a dissolution test was performed. The dissolution test was performed according to the dissolution test method of the Japanese Pharmacopoeia, Seventeenth Edition. By using a dissolution testing device (NTR-6000 series, manufactured by Toyama Sangyo Co., Ltd.), the dissolution test was performed by a paddle method using water as a dissolution test liquid. At this time, the volume of the dissolution test liquid was set to 900 mL, the temperature of the dissolution test liquid was set to 37 ±0.5° C., and the paddle rotation rate was set to 50 rpm. With respect to the respective Examples and the respective Comparative Examples, the total amount was added to the dissolution test liquid, and the dissolution test liquid was sampled at 5, 10, 15, 30, 45, 60, 90, and 120 minutes after the start of the test, and filtered through a 0.45-μm filter (manufactured by Whatman GE Healthcare Biosciences), and then, the dissolution rate of Compound (I) was measured using high performance liquid chromatography.
FIGS. 5 to 9 show the time course of the dissolution rate of Compound (I) in the granular compositions of Examples 1 to 5, respectively, and also show the time course of the dissolution rate of Compound (I) in Comparative Examples 1 to 5, respectively. […] In FIGS. 5 to 11, the vertical axis represents the dissolution rate (unit: %) and the horizontal axis represents a time (unit: min). The solid lines E1 to E8 represent the cases of Examples 1 to 8, respectively, and the broken lines C1 to C8 represent the cases of Comparative Examples 1 to 8, respectively.

| dissolution rate of the mixture with an excipient after compression molding versus the mixture not compression molded | dissolution property of Compound (I) (in a granule obtained by a fluidized bed granulation method) | SMILES |
| --- | --- | --- |
| substantially equivalent | – | CC(=O)Nc1ccc(O)cc1 [acetaminophen] |
| substantially equivalent | – | COc1ccc2c(c1)c(CC(=O)O)c(C)n2C(=O)c1ccc(Cl)cc1 [indomethacin] |
| substantially equivalent | – | CCN(CC)C(=O)Nc1ccc(OCC(O)CNC(C)(C)C)c(C(C)=O)c1 (stereo not shown) [celiprolol hydrochloride] |
| – | low | CC(C)N(CCCCOCC(=O)NS(C)(=O)=O)c1cnc(-c2ccccc2)c(-c2ccccc2)n1 [Compound (I), 2-{4-[N-(5,6-diphenylpyradin-2-yl)-N-isopropylamino]butyloxy}-N-(methylsulfonyl)acetamide] |
